Reference: patent publication US9346849B2, “Amino sugar-bound anti-cancerous noble metal complex” (NATIONAL UNIVERSITY CORPORATION NARA INSTITUTE OF SCIENCE …, priority 2012, dated 2016)

Assays:
Type in all cases: cell-based
[1] = test system: MKN45; test: Anticancer activity test (MTT viability), gastric cancer cell line MKN45; settings: for IC50: MKN45 (n=4), drug incubation 48 hours, MTT
Experimental: (§1) 1. Gastric cancer cell lines MKN28 and MKN45 were individually seeded in 96-well plates in duplicate at 1×10^3 cells/100 μL/well (a medium (RPMI1640) containing 10% FBS was used) and incubated at 37° C. and 5% CO2 for 68 hours.
(§2) 2. A preparation made by mixing a drug (CDDP ([PtCl2(NH3)2]) or Pd-Oqn) with the medium was dispensed into each well, and thereafter incubated at 37° C. and 5% CO2 for 48 hours.
(§3) 3. MTT was dispensed into each well at 10 μL/well, followed by incubation at 37° C. for 4 hours. Thereafter, the absorbance at 450 nm was measured with a microplate reader, and the viability was calculated.

[2] = test system: MKN28; test: Anticancer activity test (MTT viability), gastric cancer cell line MKN28; settings: MKN28 (n=4), drug incubation 48 hours
Experimental: as §1, §2, §3

[3] = test system: Panc-1; test: Anticancer activity test (MTT viability), pancreatic cancer cell line Panc-1; settings: for IC50: Panc-1 (n=4), drug incubation 48 hours, MTT
Experimental: 1. A pancreatic cancer cell line (Panc-1) was seeded in 96-well plates in duplicate at 1×10^3 cells/100 μL/well (a medium (RPMI1640) containing 10% FBS was used) and incubated at 37° C. and 5% CO2 for 68 hours.
as §2, §3

Molecule	IC50 [1] [µM]	IC50 [2] [µM]	IC50 [3] [µM]	anticancer activity (IC50) relative to cisplatin ([1]; stomach cancer cells MKN45 and MKN28 together, versus cisplatin)	anticancer activity (IC50) relative to cisplatin ([3]; Panc-1, versus cisplatin)
N.N.[Cl][Pt][Cl] [CDDP, [PtCl2(NH3)2], reference compound]	28.2	87.2	124	–	–
[Pd(GlcN=Oqn)Cl] [Pd-Oqn]	11.7	17.5	63.1	about two to five times higher	about two times higher
